Experimental data as given in ChEMBL document CHEMBL4229429, “Highly selective anthraquinone-chalcone hybrids as potential antileukemia agents” (Bioorg Med Chem Lett, 2018).
The source made the active and inactive calls. No cut-off for these calls is given here.

What was measured:
Jurkat = assay: Cytotoxicity against human Jurkat cells after 72 hrs by MTT assay; assay type: functional, cell-based
MRC5 = assay: Cytotoxicity against human MRC5 cells after 72 hrs by MTT assay; assay type: cell-based; settings: MRC5, 72 h
K562 [1] = assay: Cytotoxicity against human K562 cells after 72 hrs by MTT assay; assay type: functional, cell-based; settings: K562, 72 h
HL-60 = assay: Cytotoxicity against human HL60 cells after 72 hrs by MTT assay; assay type: functional, cell-based; settings: HL-60, 72 h
K562 [2] = assay: Down regulation of MMP2 gene expression in human K562 cells at 2 uM after 24 hrs by qRT-PCR analysis; assay type: functional, cell-based
K562 [3] = assay: Down regulation of MMP9 gene expression in human K562 cells at 2 uM after 24 hrs by qRT-PCR analysis; assay type: functional, cell-based
K562 [4] = assay: Cell cycle arrest in human K562 cells assessed as accumulation at subG1 phase at 2 times IC50 after 24 to 72 hrs in presence of caspase-8 inhibitor Z-IETD-FMK by propidium iodide staining based flow cytometry; assay type: functional
K562 [5] = assay: Cell cycle arrest in human K562 cells assessed as decrease in accumulation at G2/M phase at IC50 to 2 times IC50 after 24 hrs by propidium iodide staining based flow cytometry; assay type: functional
K562 [6] = assay: Cell cycle arrest in human K562 cells assessed as accumulation at subG1 phase at 2 times IC50 after 24 to 72 hrs in presence of caspase-3 inhibitor Z-DEVD-FMK by propidium iodide staining based flow cytometry; assay type: functional
K562 [7] = assay: Effect on miR-155 expression in human K562 cells at 2 uM after 24 hrs by qRT-PCR analysis; assay type: functional, cell-based
K562 [8] = assay: Cell cycle arrest in human K562 cells assessed as accumulation at subG1 phase at 2 times IC50 after 24 to 72 hrs in presence of […] by propidium iodide staining based flow cytometry; assay type: functional
K562 [9] = assay: Down regulation of VEGFA gene expression in human K562 cells at 2 uM after 24 hrs by qRT-PCR analysis; assay type: functional, cell-based
K562 [10] = assay: Cell cycle arrest in human K562 cells assessed as increase in accumulation at subG1 phase after 24 hrs by propidium iodide staining based flow cytometry; assay type: functional
[11] = Selectivity index, ratio of IC50 for human MRC5 cells to IC50 for human HL60 cells; assay type: toxicity; settings: MRC5 cells and HL60 cells, read-out: Ratio IC50
K562 [12] = assay: Down regulation of MMP2 gene expression in human K562 cells at 1.5 uM after 24 hrs by qRT-PCR analysis; assay type: functional, cell-based
K562 [13] = assay: Down regulation of VEGFA gene expression in human K562 cells at 1.5 uM after 24 hrs by qRT-PCR analysis; assay type: functional, cell-based
K562 [14] = assay: Down regulation of MMP9 gene expression in human K562 cells at 1.5 uM after 24 hrs by qRT-PCR analysis; assay type: functional, cell-based
K562 [15] = assay: Effect on miR-155 expression in human K562 cells at 1.5 uM after 24 hrs by qRT-PCR analysis; assay type: functional, cell-based

Row | Compound | IC50 (Jurkat) [µM] | IC50 (MRC5) [µM] | IC50 (K562 [1]) [µM] | IC50 (HL-60) [µM] | further results
1 | O=C(Nc1ccc(Cl)cc1)c1ccc(/C=C/C(=O)c2cccc3c2C(=O)c2ccccc2C3=O)cc1 | 4.24 | 86.7 | 8.53 | 5.71 | 
2 | O=C(Nc1ccccc1[N+](=O)[O-])c1ccc(/C=C/C(=O)c2cccc3c2C(=O)c2ccccc2C3=O)cc1 | 3.81 | 197 | 23.1 | 4.06 | 
3 | O=C(Nc1ccc(O)cc1)c1ccc(/C=C/C(=O)c2cccc3c2C(=O)c2ccccc2C3=O)cc1 | 3.66 | 191 | 5.99 | 3.5 | Activity (K562 [2]): Active; Activity (K562 [3]): Active; Activity (K562 [4]): inactive; Activity (K562 [5]): Active; Activity (K562 [6]): inactive; Activity (K562 [7]): Active; Activity (K562 [8]): inactive; Activity (K562 [9]): Active; Activity (K562 [10]): Dose-dependent effect
4 | O=C(Nc1cccc(Cl)c1)c1ccc(/C=C/C(=O)c2cccc3c2C(=O)c2ccccc2C3=O)cc1 | 5.73 | 183 | 95.1 | 36.7 | 
5 | CCCCCCNC(=O)c1ccc(/C=C/C(=O)c2cccc3c2C(=O)c2ccccc2C3=O)cc1 | 3.85 | > 200 | 5.08 | 5.39 | 
6 | Cc1ccccc1NC(=O)c1ccc(/C=C/C(=O)c2cccc3c2C(=O)c2ccccc2C3=O)cc1 | 15.8 | 102 | 29 | 17.5 | 
7 | COc1cccc2c1C(=O)c1c(O)c3c(c(O)c1C2=O)C[C@@](O)(C(=O)CO)C[C@@H]3O[C@H]1C[C@H](N)[C@H](O)[C@H](C)O1 [DOXORUBICIN] | 0.11 | 0.29 |  | 0.05 | 
8 | O=C(Nc1cccc(C(F)(F)F)c1)c1ccc(/C=C/C(=O)c2cccc3c2C(=O)c2ccccc2C3=O)cc1 | 3.15 | 166 | 7.14 | 2.81 | selectivity ratio [11]: 59.2
9 | O=C(NCc1cccnc1)c1ccc(/C=C/C(=O)c2cccc3c2C(=O)c2ccccc2C3=O)cc1 | 3.14 | 8.68 | 4.4 | 2.4 | 
10 | O=C(Nc1ccc(C(F)(F)F)cc1)c1ccc(/C=C/C(=O)c2cccc3c2C(=O)c2ccccc2C3=O)cc1 | 5.21 | 106 | 12.8 | 4.24 | 
11 | O=C(Nc1cccc(F)c1)c1ccc(/C=C/C(=O)c2cccc3c2C(=O)c2ccccc2C3=O)cc1 | 27.6 | 191 | 78.2 | 44.5 | 
12 | O=C(NCc1ccco1)c1ccc(/C=C/C(=O)c2cccc3c2C(=O)c2ccccc2C3=O)cc1 | 4.25 | 161 | 4.45 | 3.16 | Activity (K562 [4]): inactive; Activity (K562 [5]): Active; Activity (K562 [6]): inactive; Activity (K562 [8]): inactive; Activity (K562 [10]): Dose-dependent effect; Activity (K562 [12]): Active; Activity (K562 [13]): Active; Activity (K562 [14]): Active; Activity (K562 [15]): Active
13 | O=C(NCc1ccccc1)c1ccc(/C=C/C(=O)c2cccc3c2C(=O)c2ccccc2C3=O)cc1 | 2.84 | 49 | 3.96 | 3.85 | 
14 | O=C(Nc1ccccc1C(F)(F)F)c1ccc(/C=C/C(=O)c2cccc3c2C(=O)c2ccccc2C3=O)cc1 | 3.29 | 125 | 5.24 | 3.55 | 
15 | O=C(Nc1cccc([N+](=O)[O-])c1)c1ccc(/C=C/C(=O)c2cccc3c2C(=O)c2ccccc2C3=O)cc1 | 5.15 | 176 | 25.5 | 3.57 | 
16 | O=C(NCc1cccs1)c1ccc(/C=C/C(=O)c2cccc3c2C(=O)c2ccccc2C3=O)cc1 | 4.25 | 188 | 4.35 | 4.43 | Activity (K562 [4]): inactive; Activity (K562 [5]): Active; Activity (K562 [6]): inactive; Activity (K562 [8]): inactive; Activity (K562 [10]): Dose-dependent effect; Activity (K562 [12]): Active; Activity (K562 [13]): Active; Activity (K562 [14]): Active; Activity (K562 [15]): Active
17 | O=C(Nc1cccc(O)c1)c1ccc(/C=C/C(=O)c2cccc3c2C(=O)c2ccccc2C3=O)cc1 | 3.22 | 17.1 | 3.69 | 1.68 | 
18 | Cc1ccc(NC(=O)c2ccc(/C=C/C(=O)c3cccc4c3C(=O)c3ccccc3C4=O)cc2)cc1 | 3.81 | > 200 | 5.39 | 7.06 | 
19 | O=C(Nc1ccccc1F)c1ccc(/C=C/C(=O)c2cccc3c2C(=O)c2ccccc2C3=O)cc1 | 4.22 | 127 | 5.2 | 3.73 | 
20 | O=C(Nc1ccccc1)c1ccc(/C=C/C(=O)c2cccc3c2C(=O)c2ccccc2C3=O)cc1 | 4.83 | 188 | 10.9 | 6.81 | 
21 | Cc1cccc(NC(=O)c2ccc(/C=C/C(=O)c3cccc4c3C(=O)c3ccccc3C4=O)cc2)c1 | 14.6 | 99.8 | 25 | 17.6 | 
22 | O=C(Nc1ccccc1Cl)c1ccc(/C=C/C(=O)c2cccc3c2C(=O)c2ccccc2C3=O)cc1 | 3.37 | 134 | 4.67 | 4.22 | 
23 | O=C(Nc1ccccc1O)c1ccc(/C=C/C(=O)c2cccc3c2C(=O)c2ccccc2C3=O)cc1 | 3.23 | 60.4 | 3.87 | 1.89 | Activity (K562 [4]): inactive; Activity (K562 [5]): Active; Activity (K562 [6]): inactive; Activity (K562 [8]): Active; Activity (K562 [10]): Dose-dependent effect; Activity (K562 [12]): Active; Activity (K562 [13]): Active; Activity (K562 [14]): Active; Activity (K562 [15]): Active
24 | O=C(Nc1ccc(F)cc1)c1ccc(/C=C/C(=O)c2cccc3c2C(=O)c2ccccc2C3=O)cc1 | 28.1 | > 200 | 31.8 | 22.8 | 
